US20050020643A1, “Pyridinyl amides and compositions thereof for use as fungicides” (priority 2002, published 2005)
Like-named read-outs stand apart in the source and are kept apart here. Marks after values point to notes of the source that are not given here.

Tests used:
Assay type in all cases: in vivo
[1] = system: Erysiphe graminis f. sp. tritici; assay: Test A: preventive control of wheat powdery mildew on wheat seedlings; parameters: concentration or dose not given beside the values; details: sprayed day before inoculation, rated after 7 days, rate not given
Phytophthora infestans [2] = assay: whole plant or invertebrate; details: for Test F disease control rating: 100 g/ha on potato seedlings, sprayed day after inoculation; for pest or weed control at 100 g/ha: Phytophthora infestans, in Solanum tuberosum, 120 h, read-out: Test F disease control rating
Plasmopara viticola [3] = assay: Test G: curative control of grape downy mildew on grape seedlings (sprayed after inoculation); details: sprayed day after inoculation
Phytophthora infestans [4] = system: Phytophthora infestans
Plasmopara viticola [5] = assay: Test E: preventive control of grape downy mildew on grape seedlings
[6] = tomato (or potato) seedlings, sprayed day before inoculation, rate not given
[7] = sprayed day before inoculation, rate not given

Structure (SMILES)	Test A disease control rating [1]	Test F disease control rating (Phytophthora infestans [2])	Test G disease control rating (Plasmopara viticola [3]; rate not given)	Test D disease control rating (Phytophthora infestans [4]; [6])	Test E disease control rating (Plasmopara viticola [5]; [7])	pest or weed control at 100 g/ha (Phytophthora infestans [2])	Test G disease control rating (Plasmopara viticola [3]; rate 100 g/ha (footnote *))	Test D disease control rating (Phytophthora infestans [4]; 100 g/ha on potato seedlings)	Test E disease control rating (Plasmopara viticola [5]; rate 100 g/ha (footnote *))
O=C(NCc1ncc(Br)cc1Br)c1c(Cl)ccnc1Cl [Compound 17]	0%	73%	98%	100%	99%				
Cc1cc(Cl)c(C(=O)NCc2ncc(Br)cc2Br)c(Cl)n1 [Compound 18]	0%	77%	100%	100%	100%				
Cc1cc(Cl)c(C(=O)NCc2ncc(Cl)cc2Cl)c(Cl)n1 [Compound 19, 2,4-Dichloro-N-[(3,5-dichloro-2-pyridinyl)methyl]-6-methyl-3-pyridinecarboxamide]	0%		100%	99%	100%	0%			
Cc1cc(Cl)c(C(=O)NC(C)c2ncc(Cl)cc2Cl)c(Cl)n1 (stereo not drawn) [Compound 20, 2,4-Dichloro-N-[1-(3,5-dichloro-2-pyridinyl)ethyl]-6-methyl-3-pyridinecarboxamide]	0%		100%	100%	100%	53%			
COc1cnc(C(C)NC(=O)c2c(Cl)cc(C)nc2Cl)c(Cl)c1 (stereo not drawn) [Compound 21]	0%	53%	77%	99%	100%				
COc1cnc(C(C)NC(=O)c2c(Cl)ccnc2Cl)c(Cl)c1 (stereo not drawn) [Compound 22]	0%	98%	94%	100%	100%				
CC(NC(=O)c1c(Cl)ccnc1Cl)c1ncc(Br)cc1I (stereo not drawn) [Compound 23]	0%	98%	96%	100%	100%				
O=C(NCc1ncc(Br)cc1Cl)c1c(I)ccnc1Cl [Compound 24]	0%	0%	84%	100%	100%				
CC(NC(=O)c1c(I)ccnc1Cl)c1ncc(Br)cc1Cl (stereo not drawn) [Compound 25]	0%	0%	72%	100%	100%				
O=C(NCc1ncc(Cl)cc1Cl)c1c(I)ccnc1Cl [Compound 26]	0%	0%	99%	100%	81%				
CC(NC(=O)c1c(I)ccnc1Cl)c1ncc(Cl)cc1Cl (stereo not drawn) [Compound 27]	0%	0%	100%	100%	100%				
CC(NC(=O)c1c(Br)ccnc1Cl)c1ncc(Br)cc1Cl (stereo not drawn) [Compound 28]	0%	100%	100%	99%	100%				
Cc1ccnc(Br)c1C(=O)NC(C)c1ncc(Br)cc1Cl (stereo not drawn) [Compound 29]	0%	57%	94%	99%	100%				
CC(NC(=O)c1c(I)ccnc1Cl)c1ncc(Br)cc1Br (stereo not drawn) [Compound 30]	0%	44%	93%	100%	100%				
CC(NC(=O)c1c(I)ccnc1F)c1ncc(Br)cc1Br (stereo not drawn) [Compound 31]	0%	79%	100%	100%	100%				
Cc1cc(Cl)c(C(=O)NC(C)c2ncc(Br)cc2Br)c(Cl)n1 (stereo not drawn) [Compound 32]	0%	82%	99%	100%	100%				
CC(NC(=O)c1c(I)ccnc1F)c1ncc(Br)cc1Cl (stereo not drawn) [Compound 33]	0%	100%	100%	100%	100%				
CC(NC(=O)c1c(Cl)ccnc1Cl)c1ncc(Cl)cc1Br (stereo not drawn) [Compound 34]	0%	99%	100%	100%	100%				
O=C(NCc1ncc(I)cc1Br)c1c(Cl)ccnc1Cl [Compound 35]	0%	96%					50* %	100# %	99* %
CC(NC(=O)c1c(Cl)ccnc1Cl)c1ncc(I)cc1Br (stereo not drawn) [Compound 36]	0%	92%					92* %	100# %	100* %
CC(NC(=O)c1c(Br)ccnc1F)c1ncc(Br)cc1Cl (stereo not drawn) [Compound 37]	0%	100%	100%	100%	100%				
